Data from PubChem BioAssay AID550 (SRMLSC, 2006).
Calls of active or inactive are those of the source.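 The calls were made as follows: active = clearly stronger inhibition of the target decarboxylase than of the coupling enzymes tested in parallel without it; inactive = the rest.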

How the values were obtained:
[1] = S. pneumoniae DPM-DC inhibitor potency, dose response, biochemical, PK/LDH-coupled NADH fluorescence, hexokinase coupling counter-screen (AID 550); conditions: purified DPM-DC, measured here: coupling enzymes counter-screen (hexokinase)
[2] = biological target: diphosphomevalonate decarboxylase (Streptococcus pneumoniae D39); experiment: as above; conditions: purified DPM-DC

SMILES | outcome [2] | further results
O=c1c2ccccc2[se]n1-c1ccccc1 | – | IC50 [1]: 38.4 µM
Nc1nc2c(s1)CCc1c-2cnn1-c1ccccc1 | – | IC50 [1]: 21 µM
CN(C)[C@@H]1C(=O)C(C(N)=O)=C(O)[C@@]2(O)C(=O)C3=C(O)c4c(O)cccc4[C@@](C)(O)[C@H]3[C@H](O)[C@@H]12 | – | IC50 [1]: 125 µM; IC50 [2]: inactive
CCN(CC)CCOC(=O)c1ccc(N=CC2=C(O)CC(C)(C)CC2=O)cc1 | inactive | –
COC(=O)Cn1c(=NC(=O)CSC(C)=O)sc2ccccc21 | inactive | –
CCOc1ccc(N(CC(=O)Nc2ccc(F)c(F)c2)S(=O)(=O)c2c(C)noc2C)cc1 | inactive | –
Cc1cc(C(=O)CSc2nnnn2-c2ccc(Cl)cc2)c(C)n1CC1CCCO1 (configuration not stated) | inactive | –
O=C(Nc1ccc(N2CCCCC2)cc1)c1cccnc1 | inactive | –
COc1ccc(C2C3=C(OC(C)=O)c4ccccc4C3=Nc3c2c(=O)n(C)c(=O)n3C)cc1 (configuration not stated) | inactive | –
N#CC(C(=O)NC1CCCCC1)c1nc2ccccc2nc1N1CCCCC1 (configuration not stated) | inactive | –
Cc1c(C(=O)NCC2CCCO2)sc2nc(-c3ccccc3)cn12 (configuration not stated) | inactive | –
CC(C)(CO)NC(=O)C(c1ccccc1)c1ccccc1 | inactive | –
O=C(c1ccccc1F)N(Cc1ccccc1)C1CCS(=O)(=O)C1 (configuration not stated) | inactive | –
COC(=O)C1=C(C)OC(N)=C(C#N)C1c1cc(OC)c(OCC(N)=O)cc1Cl (configuration not stated) | inactive | –
COc1cccc(C(=O)OCn2nnc3ccccc3c2=O)c1 | inactive | –
CC(/C=N/n1cnnc1)=C\c1ccco1 | – | IC50 [1]: 3440 µM
COc1ccccc1NC(=O)C1=C(C)NC2=C(C(=O)CCC2)C1c1ccc2c(c1)OCO2 (configuration not stated) | – | IC50 [2]: 76.3 µM
Cc1cccc(C(=O)Nc2cc(=O)n(C)c(=O)n2C)c1 | inactive | –
Cc1cccc2cc(CN(Cc3ccco3)S(=O)(=O)c3ccc4c(c3)OCCO4)c(=O)[nH]c12 | inactive | –
CC1(C)C(C=C(Cl)Cl)C1C(=O)N1CCN(c2ccccc2)CC1 (configuration not stated) | inactive | –
CCOC(=O)c1c(CC(C)C)csc1NC=O | inactive | –
Cc1ccc(C2C3CN(C(C)C)CC=C3C(C#N)=C(N)C2(C#N)C#N)cc1 (configuration not stated) | – | IC50 [2]: 39.6 µM

SMILES | outcome [2] | further results
Cn1c(=NC(=O)c2ccco2)sc2cccc(F)c21 | inactive | –
CCn1nc(-c2ccccc2)nc2c(=O)n(C)c(=O)nc1-2 | – | IC50 [1]: 13.5 µM
CCN(CC)c1ccc(/C=N/n2c(=S)[nH]nc(C)c2=O)cc1 | – | IC50 [1]: 39.5 µM
COc1cc(-c2nc3cnccc3n2C)cc(OC)c1OC | inactive | –
CCCCC(=O)Nc1ccc(C(N)=O)cc1 | inactive | –
O=c1c(-c2ccccc2)c(O)c2cccc3c2n1CCC3 | inactive | –
CCOC(=O)COc1ccc2nsnc2c1Cl | inactive | –
CCOC(=O)c1cc2c(=O)n(C)c3ccccc3c2s1 | inactive | –
COc1ccc(-c2cc(C(F)(F)F)nc(SCCC(=O)Nc3cc(C)on3)n2)cc1 | inactive | –
Cc1nc(-c2cnn(-c3ccccc3)c2)c2cc(C)oc2n1 | inactive | –
CCc1ccc(CCC(=O)Nc2ccc(C)c(C)c2)o1 | inactive | –
Cc1cc(C)c(S(=O)(=O)NCc2cn3c(C)csc3n2)cc1C | inactive | –
O=C1C(Cl)=C(NCC2CCCO2)C(=O)N1Cc1ccccc1 (configuration not stated) | inactive | –
Cc1cc(=O)[nH]c2ccccc12 | inactive | –
OCCNc1ncnc2c1c(-c1ccccc1)c(-c1ccccc1)n2Cc1ccco1 | inactive | –
O=S(=O)(Nc1ccc(C(F)(F)F)cc1)c1cnc[nH]1 | inactive | –
C=C(C)Cn1c(COc2ccccc2)nnc1SCC(=O)O | inactive | –
COC(=O)Sc1nnc(-c2ccc(Br)cc2)o1 | – | IC50 [1]: 19.6 µM
CC(=O)Nc1cccc(NC(=O)CSc2nnnn2Cc2ccccc2)c1 | inactive | –
COc1cccc(/C=N\n2c(C)nnc2C)c1OC | inactive | –
COc1cc2c(cc1NC(=O)c1ccc3c(c1)OCO3)oc1ccccc12 | inactive | –
Cc1nc2cc(NC(=O)NCc3ccco3)ccc2n1C | inactive | –

SMILES | outcome [2] | further results
CN(C)C(=O)Nc1cnc2ccccc2c1 | inactive | –
CN(C)Cc1nc2ccccc2c(=O)n1Cc1nc(-c2cc3ccccc3o2)cs1 | inactive | –
CC(C)(C)CC(=O)Nc1nnc(-c2cccs2)s1 | inactive | –
Cc1noc(C)c1CSc1nc2ccccc2s1 | inactive | –
O=C(CSc1nnnn1Cc1ccccc1)NCCc1ccccc1 | inactive | –
O=C1NC(=O)C(CC(=O)N(c2ccccc2)C2(C(=O)NC3CCCC3)CCCCC2)N1 (configuration not stated) | inactive | –
Cc1cccc(OCC(O)Cn2c(-n3nc(C)cc3C)nc3c2c(=O)[nH]c(=O)n3C)c1 (configuration not stated) | inactive | –
Cc1cc(-c2ccccc2)nc2cc(C(N)=O)nn12 | inactive | –
Clc1cccc(-c2ccc(/C=N/n3cnnc3)o2)c1 | – | IC50 [1]: 3720 µM
CCn1nc(-c2cccs2)nc2c(=O)n(C)c(=O)nc1-2 | – | IC50 [1]: 5.99 µM
COc1ccc(C(=O)NCc2cn3c(C)csc3n2)cc1OC | inactive | –
CCOc1ccc(N2CC(C(=O)OC)CC2=O)cc1 (configuration not stated) | inactive | –
Cc1ccccc1CN1CCN(S(=O)(=O)c2ccc(F)cc2)CC1 | inactive | –
COc1cc(C2C(C#N)=C(C)NC3=C2C(=O)CC(C)(C)C3)cc(OC)c1O (configuration not stated) | inactive | –
CC(=NCc1ccco1)c1c(C)[nH]n(-c2nc3ccccc3s2)c1=O | inactive | –
O=C(C1CCCCC1)N1CCC(c2nc3c(nnn3Cc3ccccc3Cl)c(=O)[nH]2)CC1 | inactive | –
COc1cc(NC(=O)c2cccs2)c(C(=O)OCC(=O)NCc2ccco2)cc1OC | inactive | –
COc1cc2c(cc1OC)/C(=C/C(=O)N1CCOCC1)NC(C)(C)C2 | – | IC50 [2]: 38.8 µM
O=C(O)c1cccn2c(=O)c3ccccc3nc12 | – | IC50 [1]: 54 µM
Cc1cnc(SCCc2ccncc2)nc1C | inactive | –
S=c1[nH]nc(-c2ccccc2)n1C1C=CCCC1 (configuration not stated) | inactive | –
CCc1ccc(S(=O)(=O)NCc2cn3ccsc3n2)s1 | inactive | –
